Reference: ChEMBL document CHEMBL5727973, “Azetidinyloxyphenylpyrrolidine compounds” (2020)

Target: 3',5'-cyclic-AMP phosphodiesterase 4B (Homo sapiens, UniProt Q07343)
Assay: Inhibition In Vitro Assay: PDE4A, PDE4B, PDE4C, PDE4D, and PDE5 human recombinant proteins are expressed and purified from Saccharomyes cerevisiae that lack endogenous PDEs. The phosphodiesterase enzymes are diluted on ice with enzyme dilution buffer (25 mM Tris, pH 7.5, 0.1 mM DTT, 5.0 mM MgCl2, 100 mM NaCl, 5 μM ZnSO4, 100 μg/mL BSA) to give approximately 20%-40% hydrolysis of cyclic nucleotide monophosphate (cNMP) in the absence of inhibitor. The stock solution of test compounds are diluted on the Beckman BioMek™ 1000 workstation to span a concentration range of 4.5 log units in 0.5 log increments. The DMSO concentration in the final test system is 2.5% for all PDE enzymes. The final test compound concentration tested ranged from 0.03 nM to 1 μM. The assay is performed in a 96-well microtiter plate format on a Beckman BioMek™ 1000 robotic station. Each row of the plate represents a 10-point dose response curve containing blank (no enzyme), non-inhibited control, and inhibitor dilutions spanning 4.5 log units in concentration in 0.5 log increments. Assay stock solutions are loaded into the Biomek™ reservoirs (water, inhibitor diluent [2.5% or 10% DMSO], 5× PDE assay buffer, substrate, inhibitor solutions, enzyme solutions, snake venom nucleotidase, and charcoal suspension). The reaction is initiated with enzyme, and incubated for 15 minutes at 30° C. […]

Chain of 3',5'-cyclic-AMP phosphodiesterase 4B (Q07343 whole entry): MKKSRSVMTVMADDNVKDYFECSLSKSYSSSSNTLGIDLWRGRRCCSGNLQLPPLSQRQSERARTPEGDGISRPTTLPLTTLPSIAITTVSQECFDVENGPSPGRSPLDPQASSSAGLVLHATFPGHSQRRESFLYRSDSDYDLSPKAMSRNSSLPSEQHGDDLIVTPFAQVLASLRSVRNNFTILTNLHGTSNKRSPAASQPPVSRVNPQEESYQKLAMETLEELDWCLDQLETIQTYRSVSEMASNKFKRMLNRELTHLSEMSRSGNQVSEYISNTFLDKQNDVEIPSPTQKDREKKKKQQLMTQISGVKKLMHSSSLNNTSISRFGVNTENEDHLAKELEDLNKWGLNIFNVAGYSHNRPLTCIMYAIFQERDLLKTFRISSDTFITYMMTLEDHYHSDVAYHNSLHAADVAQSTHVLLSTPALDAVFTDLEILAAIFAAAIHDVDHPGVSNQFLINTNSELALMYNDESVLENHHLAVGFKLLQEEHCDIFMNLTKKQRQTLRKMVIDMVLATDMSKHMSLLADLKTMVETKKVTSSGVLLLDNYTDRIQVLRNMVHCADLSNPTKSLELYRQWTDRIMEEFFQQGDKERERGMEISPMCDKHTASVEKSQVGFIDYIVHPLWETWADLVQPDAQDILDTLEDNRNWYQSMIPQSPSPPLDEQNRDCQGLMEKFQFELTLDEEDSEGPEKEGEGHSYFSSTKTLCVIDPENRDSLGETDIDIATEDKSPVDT

SMILES: COc1ccc([C@@H]2CN(C(=O)[C@@H](O)CO)C[C@@]2(C)[C@@H](C)O)cc1OC1CN(c2cnccn2)C1
- IC50: 14 nM
